Source: patent US6916812B2, “Alpha-aminoamide derivatives as melanocortin agonists” (Bristol-Myers Squibb Company, priority 2001, dated 2005)
Where two headings read alike, the source gives them in different places.

Biological target: T1, cloned human MC4R (Homo sapiens, UniProt P32245)
T1 construct: made in house; host or cells: Hi5 insect cells (baculovirus infection); membrane preparation
Experiment: Membrane binding assay: competitive inhibition of [125I]NDP-α-MSH binding
Settings: for inhibition at 10 µM: read-out: Displacement Rate (%) (at 10 μM); for IC50: read-out: MC4R IC50
Description: Hi5 cells are infected using the following protocol: Cells at a density of 1×10^6 cells/mL are spun down at 1000 rpm (Beckman GS-6KR centrifuge) for 10 minutes. Cells are resuspended in 10% of their original volume in a sterile 50 mL conical centrifuge tube wrapped with aluminum foil. Virus is added at a Multiplicity of Infection (MOI) of 3 and incubated for 1 hour at room temperature with gentle shaking. […] Cells are spun down in 50 mL conical centrifuge tubes at 1000 rpm for 10 minutes. Each of the resulting pellets are resuspended in 10 mL of cold (4° C.) membrane buffer (25 mM HEPES, pH 7.4, 140 mM NaCl, 1.2 mM MgCl2, 2.5 mM CaCl2, 10 μG/mL Aprotinin, 10 μG/mL Leupeptin) and Dounce homogenized using 10-12 strokes. […] The resulting pellet is resuspended in cold membrane buffer in a total of ¼ of the original volume by vortexing and aspiration using a syringe and 27 gauge needle. Protein content is determined (Bradford, Bio-Rad Protein Assay). Membranes are aliquoted in microcentrifuge tubes and quick frozen in liquid nitrogen. Store at −80° C. until use. The membrane binding buffer is composed of 25 mM HEPES, pH 7.4, 140 mM NaCl, 1.2 mM MgCl2, 2.5 mM CaCl2, 0.1% BSA. […] The mixture is filtered with Brandel Microplate 96 filter apparatus using 96-well GF/B filter presoaked in 1-% polyethyleneimine (Sigma). The filter is washed (4 times with a total of 1 mL per well) with cold wash buffer consisting of 20 mM HEPES, pH 7.4, 5 mM MgCl2. […] 100 μl of Wallac Optiphase Supermix scintillation fluid is added to each well. The top is sealed and the plates are shaken to insure that the filters are thoroughly soaked with fluid. […] Dose-response curves are fitted by […] analyses and IC50 values are calculated using ExcelFit.

[1] = at 10 μM, [125I]NDP-α-MSH displacement

T1 sequence (P32245 whole entry): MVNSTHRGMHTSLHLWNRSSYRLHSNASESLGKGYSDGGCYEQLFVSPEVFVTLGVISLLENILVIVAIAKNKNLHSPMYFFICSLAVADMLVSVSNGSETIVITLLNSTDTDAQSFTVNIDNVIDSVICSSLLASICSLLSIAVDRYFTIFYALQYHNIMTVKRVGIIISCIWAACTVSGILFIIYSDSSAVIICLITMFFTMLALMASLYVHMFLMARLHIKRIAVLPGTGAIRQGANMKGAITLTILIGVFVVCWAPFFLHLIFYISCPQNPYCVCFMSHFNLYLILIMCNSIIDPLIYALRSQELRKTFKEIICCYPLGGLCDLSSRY

SMILES | inhibition at 10 µM [1] | IC50 | inhibition at 10 µM
COc1ccc2ccccc2c1CN1CCN(C(=O)[C@@H](N)Cc2ccc(OCc3ccccc3)cc2)CC1 [Example 106] | 71 to 90% | 1.5 to 3 µM | –
Cc1ccc(C)c(CN2CCN(C(=O)[C@@H](N)Cc3ccc(OCc4ccccc4)cc3)CC2)c1 [Example 107] | 71 to 90% | 1.5 to 3 µM | –
N[C@@H](Cc1ccc(OCc2ccccc2)cc1)C(=O)N1CCN(Cc2ccccc2-c2ccccc2)CC1 [Example 109] | 71 to 90% | > 3 µM | –
N[C@@H](Cc1ccc(OCc2ccccc2)cc1)C(=O)N1CCN(Cc2ccc(OCc3ccc([N+](=O)[O-])cc3)cc2)CC1 [Example 110] | 71 to 90% | < 1.5 µM | –
N[C@@H](Cc1ccc(OCc2ccccc2)cc1)C(=O)N1CCN(Cc2ccccc2[N+](=O)[O-])CC1 [Example 111] | 71 to 90% | > 3 µM | –
CC(C)(C)c1ccc(CN2CCN(C(=O)[C@@H](N)Cc3ccc(OCc4ccccc4)cc3)CC2)cc1 [Example 112] | 71 to 90% | 1.5 to 3 µM | –
N[C@@H](Cc1ccc(OCc2ccccc2)cc1)C(=O)N1CCN(CC2CCCCC2)CC1 [Example 113] | 71 to 90% | < 1.5 µM | –
N[C@@H](Cc1ccc(OCc2ccccc2)cc1)C(=O)N1CCN(Cc2ccc(Cl)c([N+](=O)[O-])c2)CC1 [Example 114] | – | > 3 µM | 71 to 90%
COc1cc(CN2CCN(C(=O)[C@@H](N)Cc3ccc(OCc4ccccc4)cc3)CC2)ccc1OCc1ccccc1 [Example 115] | 71 to 90% | > 3 µM | –
CCOc1ccccc1CN1CCN(C(=O)[C@@H](N)Cc2ccc(OCc3ccccc3)cc2)CC1 [Example 116] | 71 to 90% | 1.5 to 3 µM | –
CCOc1cccc(CN2CCN(C(=O)[C@@H](N)Cc3ccc(OCc4ccccc4)cc3)CC2)c1O [Example 117] | 71 to 90% | > 3 µM | –
N[C@@H](Cc1ccc(OCc2ccccc2)cc1)C(=O)N1CCN(C2CCC(c3ccccc3)CC2)CC1 (some centres unmarked) [Example 118] | 71 to 90% | > 3 µM | –
N[C@@H](Cc1ccc(OCc2ccccc2)cc1)C(=O)N1CCN(Cc2ccc(Cl)cc2Cl)CC1 [Example 119] | 71 to 90% | > 3 µM | –
N[C@@H](Cc1ccc(OCc2ccccc2)cc1)C(=O)N1CCN(Cc2cccc(F)c2F)CC1 [Example 120] | 71 to 90% | > 3 µM | –
COc1cc(CN2CCN(C(=O)[C@@H](N)Cc3ccc(OCc4ccccc4)cc3)CC2)cc(Br)c1OC [Example 121] | 71 to 90% | 1.5 to 3 µM | –
CCCCCCCN1CCN(C(=O)[C@@H](N)Cc2ccc(OCc3ccccc3)cc2)CC1 [Example 122] | 71 to 90% | 1.5 to 3 µM | –
N[C@@H](Cc1ccc(OCc2ccccc2)cc1)C(=O)N1CCN(Cc2cccc(C(F)(F)F)c2)CC1 [Example 123] | 71 to 90% | > 3 µM | –
N[C@@H](Cc1ccc(OCc2ccccc2)cc1)C(=O)N1CCN(Cc2cc3c(cc2Cl)OCO3)CC1 [Example 124] | – | > 3 µM | 71 to 90%
CSc1ccc(CN2CCN(C(=O)[C@@H](N)Cc3ccc(OCc4ccccc4)cc3)CC2)cc1 [Example 125] | 71 to 90% | 1.5 to 3 µM | –
CCCOc1ccc(CN2CCN(C(=O)[C@@H](N)Cc3ccc(OCc4ccccc4)cc3)CC2)cc1 [Example 126] | 71 to 90% | 1.5 to 3 µM | –
N[C@@H](Cc1ccc(OCc2ccccc2)cc1)C(=O)N1CCN(Cc2cccc3ccccc23)CC1 [Example 127] | 71 to 90% | – | –
Cc1ccsc1CN1CCN(C(=O)[C@@H](N)Cc2ccc(OCc3ccccc3)cc2)CC1 [Example 128] | 35 to 70% | > 3 µM | –
N[C@@H](Cc1ccc(OCc2ccccc2)cc1)C(=O)N1CCN(Cc2ccc(Br)cc2)CC1 [Example 129] | 35 to 70% | > 3 µM | –
COc1cc(OC)c(CN2CCN(C(=O)[C@@H](N)Cc3ccc(OCc4ccccc4)cc3)CC2)cc1Br [Example 130] | 35 to 70% | > 3 µM | –
